The values that follow come from paper PMC5504357, “Antifungal Potential of Copper(II), Manganese(II) and Silver(I) 1,10-Phenanthroline Chelates Against Multidrug-Resistant Fungal Species Forming the Candida haemulonii Complex: Impact on the Planktonic and Biofilm Lifestyles” (Frontiers in Microbiology, 2017).

Format in all cases: cell-based
The subject of one experiment is Candida haemulonii. Briefly: Biofilm-growing cells, XTT assay, bMIC. The note with it: for GM-bMIC: geometric mean, C. haemulonii isolates, values marked * do not include LIP Ch4 (>512); for bMIC: mature biofilm, 48 h, 50% inhibition of metabolic activity. The gist of the method: (§1)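 Metabolic activity was read by XTT reduction to formazan. Compounds were added at planktonic-assay concentrations for 48 h at 37 °C to washed 48 h biofilms grown from 10^6 cells in Sabouraud-dextrose broth. bMIC was defined as the minimal concentration inhibiting metabolic activity by 50% relative to untreated wells.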

Another experiment has as its system Candida duobushaemulonii. The experiment can be described thus: Biofilm-growing cells, XTT assay, bMIC. Conditions: for GM-bMIC: geometric mean, C. duobushaemulonii isolates; for bMIC: mature biofilm, 48 h, 50% inhibition of metabolic activity. The gist of the method:
as §1

Experiment [1] deals with Candida haemulonii var. vulnera. Briefly: Biofilm-growing cells, XTT assay, bMIC. Conditions: for GM-bMIC: geometric mean, C. haemulonii var. vulnera isolates; for bMIC: mature biofilm, 48 h, 50% inhibition of metabolic activity. The method, boiled down: as §1
In experiment [2] the test system is Candida haemulonii complex. The experiment can be described thus: Biofilm-growing cells, overall across isolates. The note with it: for Overall GM-bMIC: geometric mean across strains, values marked * do not include LIP Ch4 (>512). The gist of the method: as §1

As to `CCO.O=C([O-])COCCOCCOCC(=O)[O-].[Ag+].[Ag+].c1cnc2c(c1)ccc1cccnc12.c1cnc2c(c1)ccc1cccnc12.c1cnc2c(c1)ccc1cccnc12.c1cnc2c(c1)ccc1cccnc12` [compound 16, [Ag2(3,6,9-tdda)(phen)4].EtOH], the GM-bMIC is 16 mg/L in the experiment with Candida haemulonii, 6.35 mg/L in the experiment with Candida duobushaemulonii and 2.52 mg/L in experiment [1]. Moreover, the bMIC in the experiment with Candida haemulonii (isolate LIP Ch4) stood at 32 mg/L; in the experiment on Candida haemulonii (isolate LIP Ch7) it was 16 mg/L; with Candida haemulonii (isolate LIP Ch14), 8 mg/L; in the experiment with Candida duobushaemulonii (isolate LIP Ch1), 4 mg/L; in the experiment on Candida duobushaemulonii (isolate LIP Ch6), 8 mg/L; in the experiment on Candida duobushaemulonii (isolate LIP Ch8), 8 mg/L. For the same compound, the bMIC turned out to be 4 mg/L in experiment [1] (isolate LIP Ch5), 1 mg/L in experiment [1] (isolate LIP Ch9) and 4 mg/L in experiment [1] (isolate LIP Ch13). In addition, the “decrease in activity on going from planktonic to biofilm cells” value in experiment [2] (biofilm MIC versus planktonic MIC) amounted to 6.3 fold. Moreover, the “Overall GM-bMIC” value in experiment [2] is 6.35 mg/L.

On to “{[Cu(3,6,9-tdda)(phen)2].3H2O.EtOH}n [compound 7]”, for which the GM-bMIC with Candida haemulonii is given as 8 mg/L; in the experiment with Candida duobushaemulonii, 8 mg/L; in experiment [1], 3.17 mg/L. Further, the bMIC in the experiment with Candida haemulonii (isolate LIP Ch4) was 32 mg/L; in the experiment on Candida haemulonii (isolate LIP Ch7) it was 4 mg/L; with Candida haemulonii (isolate LIP Ch14) it was 4 mg/L; in the experiment on Candida duobushaemulonii (isolate LIP Ch1), 16 mg/L; in the experiment with Candida duobushaemulonii (isolate LIP Ch6), 4 mg/L; with Candida duobushaemulonii (isolate LIP Ch8), 8 mg/L. Moreover, the bMIC in experiment [1] (isolate LIP Ch5) was 4 mg/L; in experiment [1] (isolate LIP Ch9), 4 mg/L; in experiment [1] (isolate LIP Ch13), 2 mg/L. Moreover, the “Overall GM-bMIC” value in experiment [2] came to 5.88 mg/L.
